Like-named read-outs stand apart in the source and are kept apart here.
Columns and labels:
Estrogen Receptor (ER) = target: T1, Estrogen Receptor (ER) (Rattus norvegicus, UniProt P06211); assay: Estrogen receptor binding assay, 3H-estradiol displacement from rat uterine cytosol; conditions: 3H-estradiol displacement, cytosolic preparations of rat uterus; pIC50 of 4.00 = inactive; read-out: ER-RLB pIC50 (converted)
T1 construct: using rat uterine cytosol as a source of ER; from tissue; host or cells: rat uterus, cytosol fraction (30000 x g supernatant)
T1 sequence (P06211 1-600): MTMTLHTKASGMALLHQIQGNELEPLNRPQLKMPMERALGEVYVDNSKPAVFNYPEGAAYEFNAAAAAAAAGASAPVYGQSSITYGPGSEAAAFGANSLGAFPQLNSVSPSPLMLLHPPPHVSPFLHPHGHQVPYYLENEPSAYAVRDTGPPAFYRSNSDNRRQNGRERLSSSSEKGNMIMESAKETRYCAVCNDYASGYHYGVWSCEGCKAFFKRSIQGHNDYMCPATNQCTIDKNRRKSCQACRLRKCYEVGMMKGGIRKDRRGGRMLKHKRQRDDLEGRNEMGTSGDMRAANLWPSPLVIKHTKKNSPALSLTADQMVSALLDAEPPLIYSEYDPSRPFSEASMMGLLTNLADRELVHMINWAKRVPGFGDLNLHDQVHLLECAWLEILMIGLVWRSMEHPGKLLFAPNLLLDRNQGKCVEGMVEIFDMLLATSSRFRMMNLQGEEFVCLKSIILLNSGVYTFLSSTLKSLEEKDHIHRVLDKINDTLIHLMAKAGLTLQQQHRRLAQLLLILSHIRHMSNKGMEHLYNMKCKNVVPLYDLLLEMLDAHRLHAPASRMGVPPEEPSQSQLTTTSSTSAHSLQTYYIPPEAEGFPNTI
Protocol: Uteri (6-10 per batch) were isolated from Brown Norway rats (250-350g), washed free from blood in saline and homogenised in 10 mM Tris buffer (pH 7.4, 1.5 mM EDTA, 10% w/v glycerol, 1 mM phenylmethylsulfonylfluoride) using an Ultra Turrax homogeniser for 3 by 15 s bursts with intervals of 1 min on ice.
Nuclear material and cellular debris were removed by centrifugation at 750×g at 4° C. for 10 min (Sorvall RT7); the cytosol component was prepared by centrifugation at 30000×g for 120 min at 4° C. in a Beckman JM1 centrifuge. The cytosol was diluted to approximately 1 mg/ml protein (rat uterine extract) determined using the Bradford method (Biorad).
Separation of bound from free radioligand was achieved by the addition of 500 μL of dextran-coated charcoal (400 mg dextran clinical grade C and 2g of charcoal, Norit A in 100 mL of Tris buffer) and centrifugation at 4° C. in a Sorval RT7 at 2000×g for 10 min.

[1] = tested on: human breast tumour cell line, MCF7; assay: Proliferation of MCF7 cells in response to 5% FCS or EGF; assay type: cell-based; conditions: Homo sapiens, MCF7; proliferation in response to 5% FCS; pIC50 of 4.00 = inactive
Protocol: (§1) The effects of 4NO were evaluated in a number of non-smooth muscle cell types including the type II airway epithelial cell line, A549 (ATCC accession number ATCC CCL-185 Lung carcinoma human) (FIG. 2); the human breast tumour cell line, MCF7, (ATTC accession number ATCC HTB-22 breast adenocarcinoma, human) which expresses the estrogen receptor (FIG. 3); and in bovine aortic endothelial cells (BAEC) (FIG. 4).
(§2) The effects of test compounds were examined on proliferation of A549 cells in response to 5% fetal calf serum (FCS). Analogues were pre-incubated with A549 cells for 30 min before the addition of FCS. The incubation continued for 48 h before cell enumeration. Data are expressed as a percentage of the cell number in vehicle treated wells and are presented as the mean and standard error of the mean. Similarly the effects of 2MEO and 4NO on proliferation of MCF7 in response to 5% FCS or epidermal growth factor (EGF, 300 pM) were examined, as were the effects of 2MEO and 4NO on proliferation of BAEC in response to 5% FCS. The incubation parameters were the same as described above and results are presented as the mean and standard error of the mean.
(§3) This assay was also used to evaluate the ability of other compounds to inhibit the proliferation of non-smooth muscle cells MCF7 and A549 (described above) in response to 5% FCS. The results of this assay are presented in Table 4 (columns G and H respectively). The potency of the compounds was considerably less in inhibiting proliferation of these cell lines than it was for HASM. These observations support the contention that there are cell type-specific targets for the actions of these compounds. Such assays may also be adopted to examine the effect of other disclosed compounds on these cells or on other non-smooth muscle cells of interest.

[2] = tested on: Human airway smooth muscle (HASM) cells; assay: Thrombin-induced proliferation of human airway smooth muscle (HASM) cells, cell number after 48 h; assay type: cell-based; conditions: for IC50: Homo sapiens, read-out: HASM-Thr pIC50 (converted); for HASM- Thr pIC25 / HASM- Thr pIC75: two site model, thrombin-induced proliferation; for HASM- Thr pIC25: first phase (inhibition up to 50%); for HASM- Thr pIC75: second phase (inhibition up to 100%)
Protocol: Human airway smooth muscle (HASM) cells were cultured from macroscopically normal bronchi (0.5-2 cm diameter) obtained from lung resection or heart-lung transplant specimens provided by the Alfred Hospital (Melbourne) according to methods published in detail previously (Fernandes et al., 1999).
Approximately 0.1 g of smooth muscle was stripped from the wall of the bronchus for each cell culture. Dissected tissue was immersed in Dulbecco's modified Eagle's medium (DMEM) (Flow Laboratories, Scotland), supplemented with 100 U/mL penicillin G (CSL, Australia) and 100 ug/mL streptomycin (CSL, Australia). The tissue was rinsed in phosphate buffered saline (PBS; Oxoid, England) and the airway smooth muscle was chopped into 2 mm^3 pieces and digested for 2 hours in DMEM containing elastase (0.5 mg/mL: Worthington Biochemical, USA) followed by a 12 hour incubation in DMEM containing collagenase (1 mg/mL) (Worthington Biochemical, USA), at 37° C. with agitation.
The resulting cell suspension was centrifuged and washed three times in phosphate buffered saline (PBS). Following the last centrifugation step, the cells were resuspended in 25 mL of DMEM supplemented with L-glutamine (2 mM: Sigma, USA), penicillin G (100 U/mL), streptomycin (100 μg/mL), amphotericin B (2 μg/mL: Wellcome, UK) and heat-inactivated FCS (10% v/v: CSL, Australia) and seeded into 25 cm^2 culture flasks. The primary isolates were incubated for 7 to 14 days to reach confluence.
Cells were harvested weekly by 10 min exposure to trypsin (0.5%: CSL, Australia) and EDTA (1 mM in PBS: BDH, Australia) and passaged at a 1:3 ratio into 75 cm^2 flasks.
The activity of the compounds has been established in cell culture by exploring their effects on mitogen-induced increases in cell number. We investigated the effects of 2MEO and its analogues, 4NO and 4NOM, on the proliferation of HASM cells in response to the proliferative stimulus of either thrombin of basic fibroblast growth factor (bFGF). Cells were seeded onto 6-well plates at a density of 1.5×10^4 cells cm^2, made quiescent by removal of serum-containing media for 24 hours and then stimulated for 48 h with either thrombin (0.3 U/ml) or bFGF (300 pM). The test compounds were pre-incubated with HASM cells for 30 minutes before the addition of thrombin. At the end of the 48 hour incubation period, cells were detached from the culture plate by trypsin (0.5% w/v in PBS containing 1 mM EDTA), incubated for 5 minutes at ambient temperature in PBS containing 0.5% (w/v) trypan blue, washed twice (2% FCS in PBS), isolated by centrifugation (12,000×g, 5 min) and resuspended in 200 μl 2% FCS in PBS for counting in a haemocytometer chamber.
Data are expressed as a percentage of the cell number in vehicle treated wells and are presented as the mean and standard error of the mean.
The potency of the compounds in regulating thrombin-induced proliferation of human airway smooth muscle (HASM) was assessed in cells maintained in culture as described above. The potencies are presented as pIC50 values (Column A of Table 4) denoting the negative log of the concentration that reduces the proliferative response by 50%. […] When the single phase model was determined to be more appropriate, the values of pIC25 and pIC75 were not calculated or shown in the table.

Pulmonary fibroblasts = assay: bFGF-induced proliferation of human pulmonary fibroblasts; assay type: cell-based; conditions: inhibition of bFGF (300 pM)-induced proliferation, mean and SEM, minimum 3 experiments; 1 μM; * not defined
Protocol: Samples of parenchyma from human lung transplant recipients were dissected away from the pleura, chopped into fragments of less than 1 mm^2 and allowed to adhere to plastic culture dishes in a minimal volume of DMEM containing serum (10%) and antibiotics (as used for HASM culture). After the tissue fragments had adhered to the base of the dish additional medium was added. Medium was changed twice weekly until an explant culture formed, at which time the tissue fragments were removed and the cells were passaged in a 1:3 split ratio by exposure to trypsin weekly to produce pulmonary fibroblast cultures.
Pulmonary fibroblasts were cultured in DMEM, serum-deprived for 24 h, in the presence or absence of the test compounds, and then stimulated with 300 pM bFGF for 48 h before harvest and counting of viable cells. An increase pulmonary fibroblast cell number was prevented by 4NOM over the concentration range of 1 to 1000 nM.
A range of the disclosed compounds was subsequently examined using the above assay system, and the results are summarized in Column E of Table 4. […] The proliferation of parenchymal fibroblasts is important in the development of pulmonary fibrosis.

[3] = tested on: type II airway epithelial cell line, A549; assay: Proliferation of A549 cells in response to 5% FCS; assay type: cell-based, human; conditions: Homo sapiens
Protocol: as §1, §2, §3

[4] = tested on: GM-CSF production by Human Airway Smooth Muscle Cells; assay: Interleukin-1α-mediated GM-CSF production by HASM cells (ELISA); assay type: cell-based; conditions: inhibition of interleukin-1α (1 ng/ml)-mediated GM-CSF production; concentration not given; * not defined
[5] = negative log of the concentration that reduces the thrombin-induced proliferative response by 50%, pIC50 of 4.00 = inactive
[6] = A549, proliferation in response to 5% FCS, pIC50 of 4.00 = inactive, read-out: A549 PIC50 (converted)

Compound	IC50 (Estrogen Receptor (ER)) [µM]	IC50 [1] [µM]	IC50 [2, 5] [µM]	HASM- Thr pIC25 [2]	HASM- Thr pIC75 [2]	pFib - bFGF (Pulmonary fibroblasts)	IC50 ([3]; A549, read-out: A549 PIC50) [µM]	IC50 [2] [µM]	IC50 [3, 6] [µM]	HASM - GM-CSF [4]
C[C@]12CC[C@@H]3c4ccc(O)cc4CC[C@H]3[C@@H]1CC/C2=N\OCc1ccc([N+](=O)[O-])cc1 [CP-DM-3-101, estrone-17-(4-nitrobenzyl)oxime]	2.4	12.6	1.91	6.27	5.06					
COc1cc2c(cc1O)CC[C@@H]1[C@@H]2CC[C@]2(C)/C(=N/OCc3cccc([N+](=O)[O-])c3)CC[C@@H]12 [CP-DM-3-104, 2-methoxyestrone-17-(3-nitrobenzyl)oxime]		8.51	0.55	7.16	5.02					
COc1cc2c(cc1O)/C(=N/Nc1ccc([N+](=O)[O-])cc1[N+](=O)[O-])C[C@@H]1[C@@H]2CC[C@]2(C)/C(=N/O)CC[C@@H]12 [CP-DM-3-119, 2-methoxy-6-(2,4-dinitrophenylhydrazono)estrone-17-oxime]						17 ± 14	15.8	3.31		
COc1ccc(CO/N=C2\C[C@@H]3[C@H](CC[C@]4(C)/C(=N/O)CC[C@@H]34)c3cc(OC)c(O)cc32)cc1 [CP-DM-4-6, 2-methoxy-6-(4-methoxybenzyloxy)-iminoestrone-17-oxime]	45.7	2.29	0.117	9.57	4.94				7.76	28 ± 10*
COc1cc2c(cc1O)/C(=N/OCc1ccncc1)C[C@@H]1[C@@H]2CC[C@]2(C)/C(=N/O)CC[C@@H]12 [CP-DM-4-15, 2-methoxy-6-(4-pyridylmethyloxy)iminoestrone-17-oxime]	12.6	10	3.39							34 ± 11*
COc1ccc(CO/N=C2\CC[C@H]3[C@@H]4CCc5cc(O)ccc5[C@H]4CC[C@]23C)cc1 [CP-DM-4-33, estrone-17-(4-methoxybenzyl)oxime]	0.11	3.16	1.35	7.12	5.03				9.12	
COc1ccc(CON=C2CCC3C4CCc5cc(O)c(OC)cc5C4CCC23C)cc1 (centres unmarked) [CP-DM-4-34, 2-methoxyestrone-17-(4-methoxybenzyl)oxime]	40.7	4.07		4.00	4.00				2.14	29 ± 12
CO/N=C1\CC[C@H]2[C@@H]3C/C(=N\OCc4cc(F)cc(F)c4)c4cc(O)c(OC)cc4[C@H]3CC[C@]12C [CP-DM-4-74, 6-(3,5difluorobenzyloxy)imino-2-methoxyestrone-17-methyloxime]		10	1.15	6.59	5.34	5 ± 9				11 ± 8

Source: patent US20070275935A1, “Estratriene Derivatives” (priority 2003, published 2007)
